Laboratory results reported in patent US20090275099A1 (priority 2004, published 2009).
Like-named read-outs stand apart in the source and are kept apart here.

Tests used:
B cells = experiment: collapse of ΔΨm detected with DiOC6(3); type: cell-based; conditions: by 5 hours
Method: (§1) To detect O2^−, cells are incubated with DHE (10 μM) for 30 min at 37° C. and are analyzed by flow cytometry to measure ethidium fluorescence. Flow analysis of mitochondrial transmembrane potential (ψm) is conducted by labeling cells with DiOC6(3) (20 nM) for 15 min at 37 degrees C. A positive control for disruption of ψm is established using carbonyl cyanide m-chlorophenylhydrazone (CCCP, 50 μM). Caspase activation assays are performed with FAM-VAD-fluoromethylketone. Processing of the substrate is evaluated by flow cytometry.
To characterize the death mechanism engaged by Bz-423, intracellular ROS, ΔΨm, cytochrome c release, caspase activation, and DNA fragmentation were measured over time (the results presented are for B cells but do characterize the response in many different cell types). The first event detected after exposure to Bz-423 is an increase in the fraction of cells that stain with dihyroethedium (DHE), a redox-sensitive agent that reacts specifically with O2^−.
Collapse of ΔΨm was detected using DiOC6(3), a mitochondria-selective potentiometric probe.

keratinocytes = experiment: intracellular ROS (DCF, flow cytometry); type: cell-based, human
From the text: (§2) Foreskin tissue obtained from neonatal circumcisions was used as a source of epidermal keratinocytes and dermal fibroblasts. The use of foreskin tissue in this project was approved by the University of Michigan Institutional Review Board. Epidermal keratinocytes were isolated from foreskin tissue as described previously (see, e.g., Varani J, et al., (1994) J. Clin. Invest. 94:1747-1753; herein incorporated by reference in its entirety). Primary and early passage cells were maintained in Keratinocyte Growth Medium (KGM) (Cambrex Bioscience.). […]
(§3) 2′,7′-dichlorodihydrofluorescin diacetate (DCFH-DA, Molecular Probes, Eugene, Oreg.) was prepared as a 10 mM stock solution in DMSO prior to each use. […] After the indicated treatments, the fluorescence of the oxidized product 2′,7′-dichlorofluorescin (DCF) was monitored by flow cytometry using a FACSCalibur (BD Bioscience, San Diego, Calif.). For each sample, 10,000 events were recorded and the data analyzed to determine median fluorescence intensity.
(§4) Within 1 hour of treatment, Bz-423 increased ROS production in a dose-dependent manner in lymphoid cells. To determine if the anti-proliferative responses to Bz-423 in keratinocytes and fibroblasts similarly involve ROS generation, intracellular ROS levels in Bz-423 treated cells were measured. […]

fibroblasts = experiment: intracellular ROS (DCF, flow cytometry); type: cell-based, human
From the text: as §2, §3, §4

F1F0-ATPase [1] = target: F1F0-ATPase (Homo sapiens, UniProt P05496+P48047); experiment: inhibition of the F1F0-ATPase (potencies stated in the description); type: biochemical
Jurkat cells = experiment: early O2− (ROS) response, 1 h; type: cell-based; conditions: Homo sapiens, Jurkat, 1 h, read-out: ROS EC50 (μM), Jurkat cells
Method: as §1
Since an early mitochondrial superoxide (O2^−) mediates apoptosis induced by Bz-423, the O2^− response of cells 1 h following incubation with drug was examined, as well as cell death at 24 h, as previously described (see, e.g., Blatt, N. B., et al., 2002 J Clin Invest 110, 1123-1132; incorporated herein by reference in its entirety).

F1F0-ATPase [2] = target: F1F0-ATPase (Bos taurus, UniProt P13621+P32876); experiment: off-rate measurements, recovery of ATP synthesis of SMPs after dilution; type: biochemical, bovine
Method: Inhibition of Na,K-ATPases with oligomycin is time-dependent and results from a slow rate of dissociation from the enzyme (0.05 s^−1) (see, e.g., Esmann, M. (1991) Biochim. Biophys. Acta 1064, 31-36; herein incorporated by reference in its entirety). Since time-dependent inhibition can have profound effects on the function of the F1F0-ATPase, the off-rate of Bz-423 and oligomycin during ATP synthesis was examined. […] Inhibited SMP suspensions were diluted into buffer and activity was measured over time. Enzymatic activity of the SMPs incubated with Bz-423 had recovered to 90% of control at 10 s, indicating rapid dissociation (see, FIG. 18). In contrast, the activity of the enzyme incubated with oligomycin was only 54% of the uninhibited activity at 10 s, and increased for several minutes after dilution (see, FIG. 18). The time-dependence of the recovery of activity fit to a single exponential yielding an apparent dissociation rate constant for Bz-423>0.3 s^−1. However, dissociation of oligomycin was complex and a portion of the inhibitor dissociated at least 10-fold slower, consistent with a tight-binding, slow-dissociating inhibitor (see, e.g., Morrison, J. F., and Walsh, C. T. (1988) Adv. Enzymol. Relat. Areas Mol. Biol. 61, 201-301; herein incorporated by reference in its entirety). Presumably, the constraints of a high-affinity inhibitor dissociating from the membrane embedded proton channel presented a significant barrier for dissociation resulting in a slow off-rate.
Off-rate measurements. Rate of inhibition of ATP synthesis was measured as described above with the following changes. A 20 μL aliquot of SMPs (1 mg mL^−1) in synthesis buffer (with 10 mM K2HPO4) was added to each well of a 96-well plate containing 2.5 μL of 100× drug (14 μM Bz-423 and 35 nM oligomycin, final) or DMSO vehicle control. The drug was diluted out by adding 200 μL of synthesis buffer to each well. Substratecoupling mixture (25 μL with 1 mM ADP) was added to each well at the indicated time point and the rate of NADP^+ reduction was monitored over time.

[3] = target: peripheral benzodiazepine receptor (“PBR”) (Homo sapiens, UniProt P30536); experiment: binding to the peripheral benzodiazepine receptor
Sequence of peripheral benzodiazepine receptor (“PBR”) (P30536 whole entry, species assumed): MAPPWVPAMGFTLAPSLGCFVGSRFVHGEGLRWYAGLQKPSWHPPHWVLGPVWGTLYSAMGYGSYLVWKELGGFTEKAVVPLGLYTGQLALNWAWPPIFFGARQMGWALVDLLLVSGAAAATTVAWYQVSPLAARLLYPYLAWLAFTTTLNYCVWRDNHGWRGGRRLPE

SMILES: CN1C(=O)C(Cc2ccc3ccccc3c2)N=C(c2ccc(O)cc2)c2cc(Cl)ccc21 (centres unmarked) [Bz-423]
- cells with collapse of ΔΨm (B cells): > 90%
- lowest dose with an ROS response (keratinocytes): 250 nM
- lowest dose with an ROS response (fibroblasts): 250 nM
- Ki (F1F0-ATPase [1]): ~9 µM
- EC50 (Jurkat cells): 10 µM
- reduction of F1F0-ATPase activity at the concentration produced after dilution (F1F0-ATPase [2]; 1.4 μM Bz-423, 3.5 nM oligomycin): 10%
- activity at 14 µM (F1F0-ATPase [2]; 14 μM Bz-423 or 35 nM oligomycin, read-out: ATP synthesis activity relative to that in the absence of inhibitor): 27%
- enzymatic activity recovered after dilution, % of control (F1F0-ATPase [2]; at 10 s after dilution): 90%
- koff (F1F0-ATPase [2]; read-out: dissociation rate from the enzyme-substrate complex): ~0.2 s⁻¹
- koff (F1F0-ATPase [2]; single exponential fit, read-out: apparent dissociation rate constant): > 0.3 s⁻¹
- Kd [3]: ~1 µM
